Reference: patent publication US20260130933A1, “PHARMACEUTICAL COMPOSITION FOR PREVENTION OR TREATMENT OF NEPHROPATHY AND/OR DIABETES MELLITUS, COMPRISING ENAVOGLIFLOZIN” (DAEWOONG PHARMACEUTICAL CO., LTD., priority 2022, published 2026)

Test: Example 3: phase 3 trial, enavogliflozin 0.3 mg vs dapagliflozin 10 mg once a day for 24 weeks added to metformin and gemigliptin in patients with type 2 diabetes (same endpoints, rescue drug)
Format: in vivo, human
Protocol: 1) when Metformin (≥1,000 mg/Day) was Administered at a Constant Dose for at Least 8 Weeks Prior to Pre-Visit (Pre-Screening) • Metformin (≥1,000 mg/day) and gemigliptin (50 mg/day) were co-administered during the 8-week stabilization period. […] 4) when Metformin (≥1,000 mg/Day) and Gemigliptin (50 mg/Day) were Co-Administered at Constant Doses for at Least 8 Weeks Prior to Pre-Visit (Prescreening) • Without a separate stabilization period, Pre-visit (pre-screening) was Visit 1 (screening).
Subjects who met the inclusion/exclusion criteria continued to receive metformin and gemigliptin while receiving a placebo of the clinical trial drug in a single-blind (subject-blinded) state for a 2-week run-in period.
Here, the randomized subjects were stratified according to the administration therapy (co-administration with two or less agents (one or two agents) or three or more agents) of a conventional hypoglycemic agent (before washout of another hypoglycemic agent) within 24 weeks prior to obtaining written informed consent and by an HbA1c value (<8% or ≥8%) at Visit 1 (screening) measured in the central laboratory.
The randomized subjects were administered two tablets of the clinical trial drug corresponding to each administration group once a day, and then visited the institution at weeks 6, 12, 18, and 24 during the 24-week administration period to conduct efficacy and safety assessments. In addition, during the clinical trial period, they were instructed to exercise regularly and control their diet without changing their daily life patterns.
• 1) Change in HbA1c at week 24 after administration of clinical trial drug compared to Visit 2 (randomization)
• 1) Change in HbA1c at each time point of weeks 6, 12, and 18 after administration of clinical trial drug compared to Visit 2 (randomization) • 2) Change in FPG at each time point of weeks 6, 12, 18, and 24 after administration of clinical trial drug compared to Visit 2 (randomization) • 3) Proportion of subjects achieving HbA1c<7% at each time point of weeks 6, 12, 18, and 24 after administration of clinical trial drug • 4) Proportion of subjects achieving HbA1c<6.5% at each time point of weeks 6, 12, 18, and 24 after administration of clinical trial drug • 5) Proportion of subjects achieving therapeutic response (HbA1c change (HbA1c at Visit 2—HbA1c at each evaluation time point)>0.5% or HbA1c<7% at each evaluation time point compared to Visit 2 (randomization)) at each time point of weeks 6, 12, 18, and 24 after administration of clinical trial drug • 6) Proportion of subjects achieving therapeutic response (HbA1c change (HbA1c at Visit 2—HbA1c at each evaluation time point)>0.7% or HbA1c<7% at each evaluation time point compared to Visit 2 (randomization)) at each time point of weeks 6, 12, 18, and 24 after administration of clinical trial drug • 7) Proportion of subjects achieving therapeutic response (HbA1c change (HbA1c at Visit 2—HbA1c at each evaluation time point)>1% or HbA1c<7% at each evaluation time point compared to Visit 2 (randomization)) at each time point of weeks 6, 12, 18, and 24 after administration of clinical trial drug

[1] = week 12, per-protocol set, enavogliflozin 0.3 mg, dapagliflozin 10 mg
[2] = week 18, modified per-protocol set 1, enavogliflozin 0.3 mg vs dapagliflozin 10 mg
[3] = week 18, modified per-protocol set 1, enavogliflozin 0.3 mg, dapagliflozin 10 mg
[4] = week 18, modified per-protocol set 2

OC[C@H]1O[C@@H](c2cc(Cc3ccc(C4CC4)cc3)c(Cl)c3c2CCO3)[C@H](O)[C@@H](O)[C@@H]1O [Enavogliflozin, (2S,3R,4R,5S,6R)-2-(7-chloro-6 (4-cyclopropylbenzyl)-2,3-dihydrobenzofuran-4-yl)-6-(hydroxymethyl)tetrahydro-2H-pyran-3,4,5-triol]
HbA1c, Median [1]: 6.83%
Subjects achieving HbA1c target of <6.5%, (%) [1]: 23.08%
Subjects achieving HbA1c target of <7%, % [1]: 67.52%
body weight, Median [1]: 65.80 kg
Subjects achieving therapeutic glycemic response 1, % (week 12, per-protocol set, response 1 = HbA1c change >0.5% or HbA1c <7%, enavogliflozin 0.3 mg, dapagliflozin 10 mg): 89.74%
Subjects achieving therapeutic glycemic response 2, % (week 12, per-protocol set, response 2 = HbA1c change >0.7% or HbA1c <7%, enavogliflozin 0.3 mg, dapagliflozin 10 mg): 85.47%
Subjects achieving therapeutic glycemic response 3, % (week 12, per-protocol set, response 3 = HbA1c change >1% or HbA1c <7%, enavogliflozin 0.3 mg, dapagliflozin 10 mg): 78.63%
FPG change from baseline, LS mean (SE) (week 18): −27.77(1.63) mg/dL
HDL-C change from baseline, LS mean (SE) (week 18): 3.82(0.64) mg/dL
HOMA-IR change from baseline, LS mean (SE) (week 18): −1.14(0.11)
HOMA-β change from baseline, LS mean (SE) (week 18): 5.97(2.27)
HbA1c change from baseline, LS mean (SE) (week 18): −0.83(0.05) % p
LDL-C change from baseline, LS mean (SE) (week 18): 0.29(1.63) mg/dL
Subjects achieving therapeutic response (HbA1c change >0.5% or HbA1c<7%) (week 18): 82.91%
UACR change from baseline, LS mean (SE) (week 18): −11.08(3.89) g/kg
UGCR change from baseline, LS mean (SE) (week 18): 58.74(2.33) mg/mg
adiponectin change from baseline, LS mean (SE) (week 18): 0.78(0.33) μg/mL
body weight change from baseline, LS mean (SE) (week 18): −3.16(0.24) kg
diastolic blood pressure change from baseline, LS mean (SE) (week 18): −3.41(0.71) mmHg
fasting C-peptide change from baseline, LS mean (SE) (week 18): −0.08(0.02) ng/mL
leptin change from baseline, LS mean (SE) (week 18): −1.46(0.52) ng/ml
systolic blood pressure change from baseline, LS mean (SE) (week 18): −6.82(0.92) mmHg
total cholesterol change from baseline, LS mean (SE) (week 18): 4.27(1.94) mg/dL
triglyceride change from baseline, LS mean (SE) (week 18): −11.64(4.46) mg/dL
FPG change from baseline, LS mean difference (week 18, vs dapagliflozin): -4.22 mg/dL
HDL-C change from baseline, LS mean difference (week 18, vs dapagliflozin): 0.40 mg/dL
HOMA-IR change from baseline, LS mean difference (week 18, vs dapagliflozin): −0.13
HOMA-β change from baseline, LS mean difference (week 18, vs dapagliflozin): 1.48
HbA1c change from baseline, LS mean difference (week 18, vs dapagliflozin): −0.07 % p
LDL-C change from baseline, LS mean difference (week 18, vs dapagliflozin): -1.10 mg/dL
Odds ratio for achieving HbA1c<6.5% (week 18, vs dapagliflozin): 1.20
Odds ratio for achieving HbA1c<7% (week 18, vs dapagliflozin): 1.36
Odds ratio, therapeutic response (HbA1c change >0.5% or HbA1c<7%) (week 18, vs dapagliflozin): 1.02
Odds ratio, therapeutic response (HbA1c change >0.7% or HbA1c<7%) (week 18, vs dapagliflozin): 1.09
Odds ratio, therapeutic response (HbA1c change >1% or HbA1c<7%) (week 18, vs dapagliflozin): 1.22
UACR change from baseline, LS mean difference (week 18, vs dapagliflozin): -2.18 g/kg
UGCR change from baseline, LS mean difference (week 18, vs dapagliflozin): 13.34 mg/mg
adiponectin change from baseline, LS mean difference (week 18, vs dapagliflozin): 0.42 µg/mL
body weight change from baseline, LS mean difference (week 18, vs dapagliflozin): -0.15 kg
diastolic blood pressure change from baseline, LS mean difference (week 18, vs dapagliflozin): −0.99 mmHg
fasting C-peptide change from baseline, LS mean difference (week 18, vs dapagliflozin): -0.02 ng/mL
leptin change from baseline, LS mean difference (week 18, vs dapagliflozin): -0.40 ng/mL
systolic blood pressure change from baseline, LS mean difference (week 18, vs dapagliflozin): −1.66 mmHg
total cholesterol change from baseline, LS mean difference (week 18, vs dapagliflozin): 0.61 mg/dL
triglyceride change from baseline, LS mean difference (week 18, vs dapagliflozin): 0.75 mg/dL
Change from baseline in HDL-C, ANCOVA LS mean difference [2]: 0.40 mg/dL
Change from baseline in LDL-C, ANCOVA LS mean difference [2]: -1.10 mg/dL
Change from baseline in total cholesterol, ANCOVA LS mean difference [2]: 0.61 mg/dL
Change from baseline in triglycerides, ANCOVA LS mean difference [2]: 0.75 mg/dL
Change from baseline in HDL-C, ANCOVA LS mean [3]: 3.82 mg/dL
Change from baseline in HDL-C, Mean [3]: 4.09 mg/dL
Change from baseline in HDL-C, Median [3]: 3.00 mg/dL
Change from baseline in LDL-C, ANCOVA LS mean [3]: 0.29 mg/dL
Change from baseline in LDL-C, Mean [3]: 0.94 mg/dL
Change from baseline in LDL-C, Median [3]: 0.00 mg/dL
Change from baseline in total cholesterol, ANCOVA LS mean [3]: 4.27 mg/dL
Change from baseline in total cholesterol, Mean [3]: 5.06 mg/dL
Change from baseline in total cholesterol, Median [3]: 3.00 mg/dL
Change from baseline in triglycerides, ANCOVA LS mean [3]: -11.64 mg/dL
Change from baseline in triglycerides, Mean [3]: -9.60 mg/dL
Change from baseline in triglycerides, Median [3]: -2.00 mg/dL
Fasting HDL-C, Mean [3]: 50.17 mg/dL
Fasting HDL-C, Median [3]: 49.50 mg/dL
Fasting LDL-C, Mean [3]: 72.10 mg/dL
Fasting LDL-C, Median [3]: 68.00 mg/dL
Fasting total cholesterol, Mean [3]: 139.38 mg/dL
Fasting triglycerides, Mean [3]: 109.52 mg/dL
Fasting triglycerides, Median [3]: 95.50 mg/dL
fasting Total cholesterol, Median [3]: 134.00 mg/dL
Change from baseline in diastolic blood pressure, ANCOVA LS mean [4]: −3.41 mmHg
Change from baseline in diastolic blood pressure, LS mean difference (enavogliflozin − dapagliflozin) [4]: −0.99 mmHg
Change from baseline in diastolic blood pressure, Mean [4]: −4.03 mmHg
